Results: patent US6878742B2, “Heterocyclic sulfonamide inhibitors of beta amyloid production” (Wyeth, priority 2000, dated 2005)
“And” between values parts separate entries of the source, which are not always exact repeats. Equal values may be shown once.

Test system: amyloid precursor protein (APP) proteolysis
Experiment: Repressor Release Assay (RRA)
Assay type: cell-based
Conditions: Conc 1 μg/mL; luciferase activity over diluent control; read-out: APPI Fold Increase
Protocol: The beta amyloid inhibitory activity of many of the compounds of the present invention has been determined using the Repressor Release Assay (RRA). See, Table 23 below. A compound is considered active in RRA if it leads to at least a 1.5 fold increase in luciferase activity at 20 μM and is non-toxic.
The compounds generated as described in Examples 1 through 220 were tested in the RRA in accordance with published techniques [Shuey, D. J., Sheiffele, P., Jones, D., Cockett, M. I., and Quinet, E. M. (1999), “Repressor release: a useful tool for monitoring amyloid precursor protein (APP) proteolysis in mammalian cells”, Society for Neuroscience Abstracts, Vol. 25, 29th Annual Meeting of Society for Neuroscience, Miami Beach, Fla., Oct. 23-28, 1999]. Briefly, this assay is performed as follows.
CHO-K1 cells are cultured in whole DMEM media (DMEM—High Glucose with 10% fetal bovine serum, 1% Non-essential Amino Acids, and 1% Penicillin-Streptomycin) at 37° C. with 5% CO2. Two million cells are plated into 10-cm dishes 24 hrs prior to transfection.
Transient transfections are completed as recommended by Gibco BRL using their Lipofectamine Plus system. First, 6 μg of pRSVO-luc and 6 μg of APP-lacI construct DNA are added to 460 μL Opti-Mem transfection media and incubated with 30 μL Plus reagent for 15 minutes. Then, a lipid mixture of 40 μL Lipofectamine reagent and 460 μL Opti-Mem transfection media is incubated with the DNA-Plus reagent mixture for 15 minutes. During the DNA-lipid incubation, the CHO-K1 cells are washed once and covered in 5.0 mL DMEM media without Penicillin-Streptomycin. The DNA-lipid preparation is then layered onto these cells and incubated at 37° C. overnight.
One and one half million transfected cells per well (100 μL total volume) are plated into sterile, opaque Packard 96-well Cultur-Plates in clear DMEM whole media (DMEM—without phenol red) and incubated at 37° C. with 5% CO2 for 3-5 hours.
Compounds are diluted using two different protocols; one protocol is used for compounds supplied neat (weighed powder in vial) and the other protocol is used for compounds supplied in solution (20 mM in DMSO in 96-well plates). For both protocols, 25 mM Hepes and 25 mM Hepes/1% DMSO are prepared fresh to be used as diluent. The Hepes/DMSO is used as the diluent control on all experimental plates.
The following table depicts the steps for compound dilution (please note that the last step is the addition of compound to cells/media in tissue culture plate):
Because some compounds arrive in 96-well format at 20 mM, the following represents the protocol for their dilution (note that an average molecular weight of these compounds was used to calculate these dilutions and as above, the last step is the addition of compound to cells/media in tissue culture plate):
Once compounds are diluted, they are applied in duplicate on cells in tissue culture plates (prepared above). Cells are incubated with compound at 37° C. with 5% CO2 for an additional 36-48 hours.
Luciferase assays (LucLite reagent, Packard) are performed and are read on a Packard TopCount instrument. Media is removed from each 96-well plate and replaced with 100 μL PBS per well (with Mg^2+ and Ca^2+). An equal volume (100 μL) of the LucLite lysis/substrate buffer is added to each well and the plates are sealed and mixed in the dark on a rotary shaker for 15-30 minutes at room temperature. Luciferase readings are then taken on the TopCount instrument. Measurements are expressed as relative light units (RLU) and are calculated and analyzed in MS Excel as follows.
A compound is considered active in RRA if it leads to at least a 1.5 fold increase in luciferase activity at 20 μM and is non-toxic, as determined by loss of signal (≦0.75 fold increase). Fold increase is the amount of luciferase activity (measured in relative light units) over diluent control. SEM represents the standard error of the mean for fold increase (not shown).

Molecule | fold induction at 1 µg/mL
CC(C)[C@@H](CO)NS(=O)(=O)c1ccc(Cl)s1 [Example 8, 5-Chloro-N-[(1S)-1-(hydroxymethyl)-2-methylpropyl]thiophene-2-sulfonamide] | 1.5

Same assay, conditions: Conc 3 μg/mL; luciferase activity over diluent control

Molecule | APPI Fold Increase [fold]
CCC(C)C(NS(=O)(=O)c1ccc(Cl)s1)C(O)CC (mixture of isomers) [Example 129] | 1.61

Same assay, conditions: Conc 3 μg/mL; luciferase activity over diluent control; read-out: APPI Fold Increase

Molecule | fold induction at 3 µg/mL
CC(C)[C@@H](CO)NS(=O)(=O)c1ccc(Cl)s1 [Example 8, 5-Chloro-N-[(1S)-1-(hydroxymethyl)-2-methylpropyl]thiophene-2-sulfonamide] | 2.5

Same assay, conditions: Conc 10 μg/mL; luciferase activity over diluent control

Molecule | APPI Fold Increase
CCC(C)C(NS(=O)(=O)c1ccc(Cl)s1)C(O)CC (mixture of isomers) [Example 129] | 7.43 fold and 4.59 fold
C=C(C)C(O)C(NS(=O)(=O)c1ccc(Cl)s1)C(C)CC (mixture of isomers) [Example 133] | 2.51 fold and 1.68 fold
CCCCCCC(O)C(NS(=O)(=O)c1ccc(Cl)s1)C(C)CC (mixture of isomers) [Example 121] | 1.74 fold and 1.5 fold and 1.56 fold
O=S(=O)(NC1(CO)CCCC1)c1ccc(Cl)s1 [Example 94] | 2.4 fold

Same assay, conditions: Conc 10 μg/mL; luciferase activity over diluent control; read-out: APPI Fold Increase

Molecule | fold induction at 10 µg/mL
C=CCC(O)[C@@H](NS(=O)(=O)c1cccs1)[C@@H](C)CC (stereo partly drawn) [Example 147, N-{(S)-2-hydroxy-1-[(S)-1-methylpropyl]pent-4-enyl}thiophene-2-sulfonamide] | 2.04
CC[C@H](C)[C@H](NS(=O)(=O)c1cccs1)C(O)C(C)(C)C (stereo partly drawn) [Example 145, N-{(S)-2-hydroxy-3,3-dimethyl-1-[(S)-1-methylpropyl]butyl}thiophene-2-sulfonamide] | 1.72
CC[C@H](C)[C@H](NS(=O)(=O)c1cccs1)C(O)CCC1OCCCO1 (stereo partly drawn) [Example 150, N-{(S)-4-(1,3-dioxan-2-yl)-2-hydroxy-1-[(S)-1-methylpropyl]butyl}thiophene-2-sulfonamide] | 1.6
CC(C)[C@@H](CO)NS(=O)(=O)c1ccc(Cl)s1 [Example 8, 5-Chloro-N-[(1S)-1-(hydroxymethyl)-2-methylpropyl]thiophene-2-sulfonamide] | 3.7
C=CCCC(O)(CCC=C)[C@@H](NS(=O)(=O)c1ccc(Br)s1)[C@@H](C)CC [Example 176, 5-bromo-N-{(S)-2-but-3-enyl-2-hydroxy-1-[(S)-1-methylpropyl]hex-5-enyl}thiophene-2-sulfonamide] | 1.52
CC[C@H](C)[C@H](NS(=O)(=O)c1ccc(Cl)s1)C(O)c1ccc(F)cc1 (stereo partly drawn) [Example 130, 5-chloro-N-{(S,S)-1-[(4-fluorophenyl)(hydroxy)methyl]-2-methylbutyl}thiophene-2-sulfonamide] | 1.85
C=C(C)C(O)(C(=C)C)[C@@H](NS(=O)(=O)c1ccc(Br)s1)[C@@H](C)CC [Example 174, 5-bromo-N-{(S)-2-hydroxy-2-isopropenyl-3-methyl-1-[(S)-1-methylpropyl]but-3-enyl}thiophene-2-sulfonamide] | 1.75
CCCCCC(O)[C@@H](NS(=O)(=O)c1cccs1)[C@@H](C)CC (stereo partly drawn) [Example 142, N-{(S)-2-hydroxy-1-[(S)-1-methylpropyl]heptyl}thiophene-2-sulfonamide] | 3.59
C=CCC(O)(CC=C)[C@@H](NS(=O)(=O)c1ccc(Cl)s1)[C@@H](C)CC [Example 165, N-{(S)-2-allyl-2-hydroxy-1-[(S)-1-methylpropyl]pent-4-enyl}-5-chlorothiophene-2-sulfonamide] | 1.73

Same assay, conditions: Conc 20 μg/mL; luciferase activity over diluent control

Molecule | APPI Fold Increase
5-bromo-N-{(S,S)-1-[(S)-1-hydroxyethyl]-2-methylbutyl}thiophene-2-sulfonamide [Example 190] | 4.4 fold and 2.6 fold
5-chloro-N-{(S,S)-2-hydroxy-1-[(S)-1-methylpropyl]pent-4-enyl}thiophene-2-sulfonamide [Example 188] | 6.3 fold and 3.6 fold

Same assay, conditions: Conc 20 μg/mL; luciferase activity over diluent control; read-out: APPI Fold Increase

Molecule | fold induction at 20 µg/mL
CC[C@H](C)[C@@H](/C=N/O)NS(=O)(=O)c1ccc(Cl)s1 [Example 230] | 4.8
CCCC(CO)NS(=O)(=O)c1ccc(Br)s1 (racemic) [Example 112, 5-bromo-N-[1-(hydroxymethyl)butyl]thiophene-2-sulfonamide] | 1.6
O=S(=O)(N[C@H](CO)Cc1ccccc1)c1ccc(Cl)s1 [Example 96, N-[(S)-1-benzyl-2-hydroxyethyl]-5-chlorothiophene-2-sulfonamide] | 1.5
C[C@@H](c1ccccc1)[C@@H](CO)NS(=O)(=O)c1ccc(Br)s1 [Example 66, 5-bromo-N-[(1S,2S)-1-(hydroxymethyl)-2-phenylpropyl]thiophene-2-sulfonamide] | 5.3
CC(NCCO)[C@@H](CO)NS(=O)(=O)c1ccc(Cl)s1 (stereo partly drawn) [Example 81, 5-chloro-N-[(1S)-2-[(2-hydroxyethyl)amino]-1-(hydroxymethyl)propyl]-2-thiophenesulfonamide] | 1.5
Cc1cccc(CSC[C@@H](CO)NS(=O)(=O)c2ccc(Br)s2)c1 [Example 115, 5-bromo-N-(R-2-hydroxy-1-{[(3-methylbenzyl)thio]methyl}ethyl)thiophene-2-sulfonamide] | 4.4
CC(C)[C@@H](CO)NS(=O)(=O)c1ccc(Cl)s1 [Example 8, 5-Chloro-N-[(1S)-1-(hydroxymethyl)-2-methylpropyl]thiophene-2-sulfonamide] | 3.3
O=S(=O)(N[C@H](CO)CSCc1ccccc1)c1ccc(Br)s1 [Example 114, N-[R-2-(benzylthio)-1-(hydroxymethyl)ethyl]-5-bromothiophene-2-sulfonamide] | 1.8
CC[C@H](CC(C)C)[C@@H](CO)NS(=O)(=O)c1ccc(Cl)s1 [Example 31, 5-chloro-N-[(1S,2R)-2-ethyl-1-(hydroxymethyl)-4-methylpentyl]thiophene-2-sulfonamide] | 4.4
CCNC1CCC([C@@H](CO)NS(=O)(=O)c2ccc(Cl)s2)CC1 (stereo partly drawn) [Example 213, 5-chloro-N-[(S)-2-hydroxy-1-(4-ethylaminocyclohexyl)ethyl]thiophene-2-sulfonamide] | 1.6
CC[C@H](c1ccc(OC)cc1)[C@@H](CO)NS(=O)(=O)c1ccc(Cl)s1 [Example 32, 5-chloro-N-[(1S,2R)-1-(hydroxymethyl)-2-(4-methoxyphenyl)butyl]thiophene-2-sulfonamide] | 5
CCCCCC(NCCO)[C@@H](CO)NS(=O)(=O)c1ccc(Cl)s1 (stereo partly drawn) [Example 83, 5-chloro-N-[(1S)-2-[(2-hydroxyethyl)amino]-1-(hydroxymethyl)heptyl]-2-thiophenesulfonamide] | 1.7
CCCCC(CO)NS(=O)(=O)c1ccc(Br)s1 (racemic) [Example 106, 5-bromo-N-[1-(hydroxymethyl)pentyl]thiophene-2-sulfonamide] | 2.4
CSCC[C@@H](CO)NS(=O)(=O)c1ccc(Br)s1 [Example 111, 5-bromo-N-[(S)-1-(hydroxymethyl)-3-(methylthio)propyl]thiophene-2-sulfonamide] | 1.8
CCC(C)C(C)C(CO)NS(=O)(=O)c1ccc(Cl)s1 (stereo not drawn) [Example 19, 5-Chloro-N-[1-(hydroxymethyl)-2,3-dimethylpentyl]thiophene-2-sulfonamide] | 6
CC(C)C[C@@H](c1ccccc1)[C@@H](CO)NS(=O)(=O)c1ccc(Br)s1 [Example 68, 5-bromo-N-[(1S,2S)-1-(hydroxymethyl)-4-methyl-2-phenylpentyl]thiophene-2-sulfonamide] | 2.3
CC(C)[C@@](C)(CO)NS(=O)(=O)c1ccc(Cl)s1 [Example 26, 5-chloro-N-[(1S)-1-(hydroxymethyl)-1,2-dimethylpropyl]thiophene-2-sulfonamide] | 5

Same assay, conditions: read-out: APPI Fold Increase

Molecule | fold induction at 20 µg/mL
O=S(=O)(NC(CO)C1CCCC1)c1ccc(Cl)s1 (stereo not drawn) [Example 24, 5-chloro-N-(1-cyclopentyl-2-hydroxyethyl)thiophene-2-sulfonamide] | 6
